Data: PubChem BioAssay (NCI)
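Grown in 96-well plates, cells were treated for 48 hours with each compound at five concentrations. Insufficient inhibition: endpoint recorded as highest concentration tested. TGI is the concentration that stops growth completely.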

Assays:
Assay in all cases: DTP human tumour cell line panel, 48 h
OVCAR-8 ovarian = tested on: OVCAR-8 ovarian
ACHN renal = tested on: ACHN renal
MOLT-4 leukemia = tested on: MOLT-4 leukemia
NCI-H23 lung = tested on: NCI-H23 lung
BT-549 breast = tested on: BT-549 breast
IGROV1 ovarian = tested on: IGROV1 ovarian
COLO 205 colon = tested on: COLO 205 colon
U251 CNS = tested on: U251 CNS
HCT-15 colon = tested on: HCT-15 colon
HS 578T breast = tested on: HS 578T breast
786-0 renal = tested on: 786-0 renal

Row | SMILES | TGI (OVCAR-8 ovarian) | TGI (ACHN renal) | TGI (MOLT-4 leukemia) | TGI (NCI-H23 lung) | TGI (BT-549 breast) | TGI (IGROV1 ovarian) | TGI (COLO 205 colon) | TGI (U251 CNS) | TGI (HCT-15 colon) | TGI (HS 578T breast) | TGI (786-0 renal)
1 | COC(=O)[C@H](Cc1c[nH]c2ccccc12)NC(=O)c1ccc(CNC(=O)/C=C/c2cccc(Oc3ccccc3)c2)cc1 | > 100 µM | > 100 µM | > 100 µM | > 100 µM | > 100 µM | > 100 µM | > 100 µM | > 100 µM | > 100 µM | > 100 µM | > 100 µM
2 | NC1=CN2c3ccccc3N(CC(=O)O)C2C=C1 (centres undefined) | > 100 µM | > 100 µM | > 100 µM | > 100 µM | > 100 µM | > 100 µM | > 100 µM | > 100 µM | > 100 µM | > 100 µM | > 100 µM
3 | COc1ccc(N2C=Nn3c(nc4sc5c(c4c3=O)CCCC5)C2)cc1 | > 100 µM | 53.2 µM | > 100 µM | > 100 µM | > 100 µM | > 100 µM | > 100 µM | > 100 µM | > 100 µM | 9.6 µM | 20.7 µM
4 | Cc1ccc(/C(O)=C/c2nc3ccccc3s/c2=N/CS(=O)(=O)c2ccc(C)cc2)cc1 | > 10 µM | > 10 µM | > 10 µM | > 10 µM | > 10 µM | > 10 µM | > 10 µM | > 10 µM | > 10 µM | > 10 µM | > 10 µM
5 | CCOP(=O)(OCC)C(N)c1ccc(Cl)cc1 (centres undefined) | > 100 µM | > 100 µM | > 100 µM | > 100 µM | > 100 µM | > 100 µM | > 100 µM | > 100 µM | > 100 µM | > 100 µM | > 100 µM
6 | CC1(C)C2CC(=O)C1(C)C(OCc1ccccc1)C2 (centres undefined) | > 100 µM | > 100 µM | 46.6 µM | > 100 µM | > 100 µM | > 100 µM | 90.6 µM | > 100 µM | > 100 µM | 77 µM | > 100 µM
7 | CC1=NN(c2nc(N)nc(CC#N)n2)C(C)(C)C1 | > 100 µM | > 100 µM | > 100 µM | > 100 µM | > 100 µM | > 100 µM | > 100 µM | > 100 µM | > 100 µM | > 100 µM | > 100 µM
8 | CN(C)CCCn1nc(N)c2nc3cc(Cl)ccc3nc21 | > 100 µM | > 100 µM | > 100 µM | > 100 µM | > 100 µM | 94.8 µM | > 100 µM | > 100 µM | > 100 µM | > 100 µM | > 100 µM
9 | Cc1c2c(OCCN3CCCCC3)nn(C)c(=O)c2c(C)n1-c1ccccc1 | > 100 µM | > 100 µM | > 100 µM | > 100 µM | > 100 µM | > 100 µM | 35.5 µM | > 100 µM | > 100 µM | > 100 µM | 36.7 µM
10 | Cc1ccc(/C=N/Nc2ccc3ccccc3n2)s1 | > 100 µM | 39.9 µM | > 100 µM | > 100 µM | 68.7 µM | 53.8 µM | 31.1 µM | 67.6 µM | > 100 µM | > 100 µM | 35.8 µM
11 | COc1c(O)cc2c(c1O)C(=O)/C(=C/c1ccc(O)cc1)CO2 | 39.6 µM | 48.3 µM | > 100 µM | > 100 µM | > 100 µM | 80.8 µM | 32.5 µM | > 100 µM | 38.2 µM | > 100 µM | 75.5 µM
12 | Nc1ccc(C(=O)c2cn(CCN3CCOCC3)c3ccccc23)c2ccccc12 | 52.7 µM | > 100 µM | 52.5 µM | 68 µM | 58.3 µM | 52.3 µM | 60.6 µM | > 100 µM | 43.3 µM | > 100 µM | > 100 µM
13 | COC(C)(C)C1(O)CCC(C)CC1=O (centres undefined) | > 100 µM | > 100 µM | > 100 µM | > 100 µM | > 100 µM | > 100 µM | > 100 µM | > 100 µM | > 100 µM | > 100 µM | > 100 µM
14 | S=C(c1c[nH]c2ccccc12)N1CCN(Cc2ccccc2)CC1 | 43.7 µM | > 100 µM | 47.5 µM | 42.8 µM | 32.4 µM | 26.2 µM | 31 µM | 33.6 µM | 28.1 µM | 34.6 µM | 29 µM
15 | Cc1ccc(NC(=O)CSc2nc(=O)[nH]c3nc[nH]c23)cc1 | > 100 µM | > 100 µM | > 100 µM | > 100 µM | > 100 µM | > 100 µM | > 100 µM | > 100 µM | > 100 µM | > 100 µM | > 100 µM
16 | CCNC(=O)c1c(O)c2ccccc2[nH]c1=O | > 100 µM | > 100 µM | > 100 µM | > 100 µM | > 100 µM | > 100 µM | > 100 µM | > 100 µM | > 100 µM | > 100 µM | > 100 µM
17 | Cc1cn([C@@H]2O[C@H](CO[Si](C)(C)C(C)(C)C)[C@]3(O[C@H]3C(=O)NN)[C@H]2O[Si](C)(C)C(C)(C)C)c(=O)[nH]c1=O | 19.8 µM | 15.6 µM | 6.02 µM | 30 µM | 13.9 µM | 18.6 µM | 6.74 µM | 14.5 µM | 14.8 µM | 6.93 µM | 14.7 µM
18 | c1c[nH]c(C23C4C5C6C4C2C6C53)n1 (centres undefined) | > 100 µM | > 100 µM | > 100 µM | > 100 µM | > 100 µM | > 100 µM | > 100 µM | > 100 µM | > 100 µM | > 100 µM | > 100 µM
19 | CCOC(=O)/C(C#N)=C/c1ccnc2ccccc12 | 57 µM | > 100 µM | > 100 µM | > 100 µM | > 100 µM | > 100 µM | > 100 µM | > 100 µM | > 100 µM | > 100 µM | > 100 µM
20 | CCN(CC)CCNC(=O)c1cn2c(ccc3sc4ccccc4c(=O)c32)n1 | 31.8 µM | 18.6 µM | 11.9 µM | 28.4 µM | 28.5 µM | 21.3 µM | 21.1 µM | > 51.6 µM | 21.2 µM | 34.6 µM | 19.5 µM
21 | CCCCCCCCCCCCCCCC(=O)N(CCCCCCCCCCC(=O)O)CC(O)C(O)C(OC1OC(CO)C(O)C(O)C1O)C(O)CO (centres undefined) | 66 µM | > 100 µM | 46.4 µM | > 100 µM | 68 µM | > 100 µM | 32.6 µM | 32.9 µM | > 100 µM | > 100 µM | > 100 µM
22 | C=C1C(=O)O[C@@H]2C[C@]3(C)CC[C@]4(C)[C@H](CC[C@@H]5[C@@]6(C)CCC(=O)C(C)(C)[C@@H]6CC[C@]54C)[C@H]3[C@H]12 | 38.7 µM | 24.2 µM | 5.76 µM | 57.3 µM | 37.4 µM | 39.2 µM | 21.6 µM | 38.4 µM | 28.1 µM | > 78 µM | 30.2 µM
23 | CC(=O)N=C1N(/C=C2\C(=O)Oc3ccccc3C2=O)C(=O)/C(=C/c2ccc(Cl)cc2Cl)N1C | > 100 µM | > 100 µM | > 100 µM | > 100 µM | 62 µM | > 100 µM | > 100 µM | > 100 µM | > 100 µM | 5.03 µM | > 100 µM
24 | C/C=C/C1OC(O)(C(C)C(O)[C@H](C)C2OC(=O)/C(OC)=C/C(C)=C/[C@@H](C)[C@@H](O)[C@@H](C)C(O)C(C)C/C(C)=C/C=C/C2OC)C[C@@H](OC2CC(O)C(OC(N)=O)C(C)O2)C1C (some centres undefined) | 15.7 µM | 12.1 µM | < 0.01 µM | 15.3 µM | 12 µM | 12.9 µM | 1.27 µM | 8.91 µM | 13.3 µM | 27.1 µM | 1.42 µM
25 | COc1cc2c(=O)cnoc2cc1O | > 100 µM | > 100 µM | > 100 µM | > 100 µM | > 100 µM | > 100 µM | > 100 µM | > 100 µM | > 100 µM | > 100 µM | > 100 µM
26 | Cc1csc(/N=C\c2c(O)c3ccccc3oc2=O)n1 | > 100 µM | > 100 µM | > 100 µM | 33 µM | > 100 µM | > 100 µM | > 100 µM | > 100 µM | > 100 µM | 94.5 µM | > 100 µM
27 | O=S(=O)(/N=C(\NO)Nc1ccc(Cl)cc1)c1cccc2nsnc12 | > 100 µM | > 100 µM | > 100 µM | > 100 µM | 83.9 µM | > 100 µM | > 100 µM | > 100 µM | > 100 µM | 85.6 µM | 80.7 µM
28 | COc1ccc2cc(CN3CCC(C4CCNCC4)CC3)ccc2c1 | 22.1 µM | 11.9 µM | 4.84 µM | 33 µM | 24.3 µM | 15.2 µM | 3.25 µM | 3.74 µM | 6.44 µM | > 30.5 µM | 3 µM
29 | CCOP(=O)(OCC)C(C#N)Cc1ccco1 (centres undefined) | > 10 µM | > 10 µM | > 10 µM | > 10 µM | > 10 µM | > 10 µM | > 10 µM | > 10 µM | > 10 µM | > 10 µM | > 10 µM
